# Experimental data published in US11926604B2, “Myelination stimulator compounds, and methods of treatment” (priority 2018, dated 2024).
# What was measured:
# [1] = type: physicochemical
# Description: (§1) Dose-range and toxicity studies in mice. In consultation with UF veterinary staff and the IACUC committee, toxicity studies were performed. […] Compounds were dissolved in 100% DMSO and diluted with 0.9% NaCl before injecting. The IP route (100-500 ul) was used to treat 8-10 week old female adults. We used females because in some studies they are more sensitive to toxins. Experiments were performed with the 2 compounds that had the largest effect on myelination in the brain slice cultures, including K261-0298 and K261-0310. Mice were treated with a single dose.
# mice [2] = assay: Multiday toxicity study, 10 days; type: in vivo, mouse; details: 100 mg/kg for 10 days
# mouse pups = assay: Ten-day treatment of mouse pups from P2, safety and pulmonary hypertension; type: in vivo
# Description: In addition, we also treated mouse pups starting on day P2 for ten days with 100 mg/kg/day K261-0298 or vehicle. […] We also evaluated for possible pulmonary hypertension.
# [3] = Toxicokinetic sample collection, HPLC compound levels; type: in vivo, mouse; details: single i.p. injection of 100 mg/kg, mice
# Description: Toxicokinetic Sample Collection: After the above studies, compound kinetics were examined. Male and female mice at approximately 60 days of age were used (n=8 mice per sex). […] Samples were collected prior to dose and at 30 minutes, 2, 4, 8 and 24 hours after. Compound levels were determined by High Pressure Liquid Chromatography (HPLC) at UF.
# mice [4] = assay: Single-dose dose-range and toxicity study in mice; type: in vivo
# Description: as §1
# hypoxia-exposed mouse = assay: Chronic sublethal hypoxia model of PWMI, ventriculomegaly; type: in vivo; parameters: ventricle size: unit not given here
# Description: FIG. 4. Depicts results of studies of myelination in an animal model of white matter injury. […] Dark-field, hemi-coronal sections at the same brain levels shown. Data shown are representative of 4 pups per treatment group. Arrow depict lateral ventricles. ac, anterior commisure. Note smaller ventricle size in the drug-treated pup. Scale bar=500 um.
# We have initiated preclinical testing using the chronic sublethal hypoxia model of PWMI. Mice were reared under hypoxic or normoxic conditions from P2 to P12, as reported 64. At P2, litters were placed in a Plexiglas chamber in which ambient O2 levels are maintained at 10.0±0.3% O2. Normoxic animals were exposed to room air. To date we tested K261-0298 at 100 mg/kg, and mice were treated once per day from P2 to P12. At the end of the treatment period mice were examined for ventriculomegaly, as reported^64,65. […] Compared with normoxic controls^64,66, ventricle sizes in the drug-treated hypoxia animals were similar.
# C57BL/6 mice [5] = assay: Myelination in newborn mice in normoxia; type: in vivo, mouse
# Description: FIG. 3. depicts results of studies of myelination in newborn mice in normoxia. FIG. 3. Myelin basic protein (MBP), O4 and O1 labeling of coronal forebrain at level of corpus callosum (cc) of newborn mice treated with vehicle or drug (K261-298) from P2 to P12 in room air. Data shown are representative of at least 5 pups per treatment group. cc, corpus callosum. Scale bar=100 um.
# After adult studies, pups were studied at developmental stages equivalent to preterm infants to assess effects on myelination, as reported by us^54. C57BL/6 mice were reared in room air from P2 to P12, and treated daily with the compound or vehicle. […] K261-0298 (100 mg/kg) was given by injection, as above.
# mouse brain slices = assay: Myelination in brain slices (MBP, O1 immunostaining); type: cell-based; details: brain slices incubated 5 days in culture, MBP labeling
# Description: FIG. 2. depicts the effect of compounds on myelination stimulation. FIG. 2. A. Myelin basic protein labeling (green) of brain slices incubated with compounds for 5 days in culture. *, p<0.05 vs vehicle. ANOVA. Data shown are representative at least 3 slices per treatment group per study, in at least 3 separate studies. (B) Vehicle, (C) K-261-0298. Note increased labeling.
# Before undertaking in vivo testing, we assessed the ability of the lead compounds to promote OL development and myelination using mouse brain slices, as reported^62,63. Each compound and concentration was tested in triplicate, in at least three separate studies. Slices were collected at 1, 5, 9, or 13 days in vitro, fixed in 4% paraformaldehyde, and used for immunohistochemical staining.
# [6] = diazoxide, basis for dose choice; cited from earlier work
# C57BL/6 mice [7] = details: cited from earlier work
# model of PWMI = details: neonatal therapy; cited from earlier work
# [8] = pups from P2, ten days, 100 mg/kg/day
# [9] = 100 mg/kg daily P2 to P12, room air, n=6
compound,measurement,setting,value
"CCOCCCNC(=O)CCC1=Nc2ccccc2S(=O)(=O)N1 [Compound K261-0298, 3-(1,1-dioxido-2H-benzo[e][1,2,4]thiadiazin-3-yl)-N-(3-ethoxypropyl)propanamide]",solubility behaviour in dosing solution,[1],more favorable solubility properties
same,adverse effects on animal behavior or weight,mice [2],no adverse effects on animal behavior or weight loss
same,histopathological analysis of major organs,mice [2],did not reveal evidence of damage in any major organs
same,gross necropsy,mice [2]; 5 treated mice,no gross malformations were observed
same,behavior or weight gain versus vehicle,mouse pups; [8],without any differences in behavior or weight gain
same,survival,mouse pups; [8],all survived to the end of treatment
same,pulmonary hypertension,"mouse pups; ten days of treatment in pups, juveniles, adults",does not appear that this compound induces pulmonary hypertension
same,half-life,"[3]; both sexes, mouse, in vivo, ip, read-out: circulating half-life (converted)",132 min
same,peak drug levels,[3],21.5 ± 2.3 µM
same,tolerated single dose,"mice [4]; IP, 8-10 week old female mice",up to 400 mg/kg
same,ventricle sizes compared with normoxic controls,hypoxia-exposed mouse; drug-treated hypoxia animals,similar
same,ventricle size,"hypoxia-exposed mouse; hypoxia, 100 mg/kg once per day P2 to P12, n=4",0.0054+/−0.00013
same,ventriculomegaly vs. vehicle,"hypoxia-exposed mouse; hypoxia, 100 mg/kg once per day P2 to P12, p<0.03, 100 mg/kg",marked reduction in ventriculomegaly
same,decrease in O4 labeling vs. vehicle,C57BL/6 mice [5]; [9],44+/−4%
same,increase in MBP labeling vs. vehicle,C57BL/6 mice [5]; [9],27+/−4%
same,increase in O1 labeling vs. vehicle,C57BL/6 mice [5]; [9],26+/−5%
same,O1 labeling (FIG. 3),"C57BL/6 mice [5]; P2 to P12 in room air, p<0.02",increase in O1 labeling
same,O4 expression (FIG. 3),"C57BL/6 mice [5]; P2 to P12 in room air, p<0.02",reduction in O4 expression
same,bioavailability to the brain / blood-brain-barrier penetration,C57BL/6 mice [5]; inferred from changes in CNS myelination,suggests that there is bioavailability of the compound to the brain
same,myelination in vitro,mouse brain slices,stimulates myelination in vitro
"CC(=O)c1ccc(N2CCN(C(=O)CCC3=Nc4ccccc4S(=O)(=O)N3)CC2)cc1 [Compound K261-0310, 1-(4-(4-acetylphenyl)piperazin-1-yl)-3-(1,1-dioxido-2H-benzo[e][1,2,4]thiadiazin-3-yl)propan-1-one]",solubility behaviour in dosing solution,[1],precipitated out of solution at higher concentrations
same,adverse effects at behavioral or gross necropsy levels,"mice [4]; mouse, in vivo, ip, 50 mg/kg",no adverse effects observed
CC1=NS(=O)(=O)c2cc(Cl)ccc2N1 [diazoxide],LD50,[6],265 to 392 mg/kg
same,myelination in room air (earlier diazoxide studies),C57BL/6 mice [7],increased myelination
same,myelination,model of PWMI,markedly improves myelination
same,neurocognitive function,model of PWMI,improves neurocognitive function
same,ventriculomegaly,model of PWMI,reduces ventriculomegaly
